Measurements: ChEMBL document CHEMBL1201862, “PubChem BioAssay data set” (2004)
Active and inactive are the calls of the source.

Tests used:
H9c2 = experiment: cells; format: functional, cell-based; conditions: Rattus norvegicus, H9c2, Myocardium;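 note: confirmatory concentration-response retest of ultra-high-throughput screening hits for modulation of myocardial damage; cell death induced by hydrogen peroxide oxidative stress; compound pretreatment for 60 min then peroxide exposure for 2 h; potency is for protecting the cells against peroxide damage rather than for killing them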
Melanocortin receptor 4 = Melanocortin receptor 4 (Homo sapiens, UniProt P32245); format: functional, cell-based;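 note: Cell-based assay with luminescence read-out, confirmatory dose-response testing for agonist activity of biased ligands at MC4R; human U2OS cells with tagged receptor and beta-arrestin; potency of agonists that increase receptor coupling to beta-arrestin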
Melanocortin receptor 4, sequence (P32245 whole entry): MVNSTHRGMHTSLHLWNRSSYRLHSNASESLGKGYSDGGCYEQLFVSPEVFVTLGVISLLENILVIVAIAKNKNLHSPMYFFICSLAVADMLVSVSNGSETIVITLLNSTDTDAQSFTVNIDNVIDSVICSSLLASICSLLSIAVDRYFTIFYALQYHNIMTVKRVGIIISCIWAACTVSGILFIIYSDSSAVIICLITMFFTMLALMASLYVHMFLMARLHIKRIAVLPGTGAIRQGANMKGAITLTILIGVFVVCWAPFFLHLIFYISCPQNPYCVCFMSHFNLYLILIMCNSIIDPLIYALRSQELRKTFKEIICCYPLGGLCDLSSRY

[1] = NIH-3T3 fibroblast cytotoxicity, dose response, cytotoxicity control, cell-based, fluorescence, Alamar Blue, secondary assay (AID 2327); format: functional;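 note: NIH-3T3 mouse fibroblasts cultured with fluconazole at 8 µg/mL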
BJ [2] = experiment: BJ-TERT fibroblast viability loss – cell-based, RAS-independent, luminescence, dose response (AID 1933); format: functional; conditions: Homo sapiens
BJ [3] = experiment: cells; format: functional, cell-based; conditions: Homo sapiens
[4] = fluconazole-exposed Candida albicans growth modulators – fluorescence, retest, confirmation (AID 2467); format: functional, cell-based
BJ [5] = experiment: BJ-TERT-LT-ST fibroblast viability loss – cell-based, RAS-independent, luminescence, dose response (AID 1935); format: functional; conditions: Homo sapiens;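 note: BJ fibroblasts immortalized with TERT plus LT and ST oncogenes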
[6] = DRD fibroblast viability loss – cell-based, non-viral oncogenic, luminescence, dose response (AID 1934); format: functional; conditions: Homo sapiens
[7] = HEK-293T viability loss after treatment – luminescence, T-cell screen hits, cytotoxicity control for TCR NF-kB inhibitor project, dose response (AID 489026); format: functional, cell-based;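 note: cells exposed to compound about 14 hours before the viability readout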
[8] = biological target: T1, Microphthalmia-associated transcription factor (Homo sapiens, UniProt O75030); experiment: reducers of TRPM1 reporter luminescence, concentration series – cell-based, SK-MEL-5, cherry-picked, set 3, MITF inhibitor project, dose response (AID 493073); format: functional;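 note: SK-MEL-5 melanoma cells with luciferase driven by the MITF target TRPM1 promoter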
T1 sequence (O75030 whole entry): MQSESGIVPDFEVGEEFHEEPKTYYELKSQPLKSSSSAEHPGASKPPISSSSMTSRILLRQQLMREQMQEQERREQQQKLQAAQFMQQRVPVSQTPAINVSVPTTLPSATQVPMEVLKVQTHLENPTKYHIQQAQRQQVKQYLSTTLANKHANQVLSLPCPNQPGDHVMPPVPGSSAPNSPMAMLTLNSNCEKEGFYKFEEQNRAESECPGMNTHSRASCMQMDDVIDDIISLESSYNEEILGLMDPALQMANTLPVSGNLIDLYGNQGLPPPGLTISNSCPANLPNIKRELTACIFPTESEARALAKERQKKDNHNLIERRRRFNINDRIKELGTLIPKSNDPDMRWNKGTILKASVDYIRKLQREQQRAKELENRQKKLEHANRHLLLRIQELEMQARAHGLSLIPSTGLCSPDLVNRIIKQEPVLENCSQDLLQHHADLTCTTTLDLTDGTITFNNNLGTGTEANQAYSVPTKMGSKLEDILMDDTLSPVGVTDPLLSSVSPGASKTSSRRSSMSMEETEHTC

BJ [9] = experiment: growth inhibition of engineered Ras-driven BJ cells – cell-based, alamar blue fluorescence, cherrypicked samples, dose response (AID 2631); format: functional; conditions: Homo sapiens;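 note: confirmatory dose-response assay in RAS-dependent BJ fibroblasts engineered with TERT, LT and ST, with cytotoxicity read by fluorescence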
[10] = reduction of Shn3 3'UTR-driven luciferase in osteoblasts – cell-based, Clone20 osteoblasts, firefly luciferase, cherry-picked, dose response (AID 624132); format: functional;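 note: firefly luciferase luminescence from reporter carrying the Shn3 3'UTR in osteoblasts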
[11] = loss of viability in HepG2 cells – cell-based, CellTiter-Glo, cherry-picked, cytotoxicity control for Shn3 inhibitor project, dose response (AID 624134); format: functional
[12] = non-specific 3'UTR reporter inhibition in Clone20-Shn3RL – cell-based, Renilla luciferase, cherry-picked, counter-screen for Shn3 inhibitor project, dose response (AID 624133); format: functional
[13] = A549 cell cytotoxicity, dose response, cytotoxicity control, plate reader, cherry-pick, antagonist series (AID 743412); format: functional, cell-based
[14] = toxicity toward HepG2 liver cells – cell-based, plate reader, cherry-pick, antagonist series, cytotoxicity control, dose response (AID 743416); format: functional
[15] = viability loss in HEK293 cells – cell-based, plate reader, cherry-picked samples, cytotoxicity control, dose response (AID 743446); format: functional
[16] = biological target: Luciferin 4-monooxygenase (Photinus pyralis, UniProt P08659); experiment: inhibition of purified Photinus pyralis luciferase – biochemical, luminescence, dose response (AID 1891)
Luciferin 4-monooxygenase, sequence (P08659 whole entry): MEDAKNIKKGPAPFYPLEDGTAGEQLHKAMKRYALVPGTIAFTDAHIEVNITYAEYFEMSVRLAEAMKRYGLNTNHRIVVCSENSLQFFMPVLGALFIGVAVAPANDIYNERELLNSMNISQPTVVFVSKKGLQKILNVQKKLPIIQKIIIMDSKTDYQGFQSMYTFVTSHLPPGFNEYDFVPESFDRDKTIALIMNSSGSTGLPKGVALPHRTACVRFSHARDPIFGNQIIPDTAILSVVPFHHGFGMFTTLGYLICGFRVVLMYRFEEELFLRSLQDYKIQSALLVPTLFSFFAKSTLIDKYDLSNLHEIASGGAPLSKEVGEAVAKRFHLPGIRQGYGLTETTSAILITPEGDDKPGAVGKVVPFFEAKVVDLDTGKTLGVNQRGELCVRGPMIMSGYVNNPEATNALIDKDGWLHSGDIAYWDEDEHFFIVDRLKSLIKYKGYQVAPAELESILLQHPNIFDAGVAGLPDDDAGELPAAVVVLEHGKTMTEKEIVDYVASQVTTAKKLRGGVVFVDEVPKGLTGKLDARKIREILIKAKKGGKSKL

[17] = Luminescence Cell-Based Dose Confirmation HTS to Identify Inhibitors of Platelet Dense Granule Release. [Related pubchem assays: 1663 (Primary HTS), 1678 (Summary of Project)]; format: functional
Jurkat = experiment: blockers of NF-kB activation in T cells – Jurkat, luciferase reporter, luminescence, B- and T-cell, dose response (AID 489004); format: functional, cell-based; conditions: Homo sapiens;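 note: NF-kB luciferase reporter Jurkat cells stimulated with PMA plus ionomycin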
[18] = HEK-293T viability loss, compound-treated – cell-based, uHTS hits, cytotoxicity control for B/T-cell NF-kB inhibitor project, dose response (AID 489019); format: functional;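 note: IC50 reflects cytotoxicity as loss of cell viability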
[19] = blockers of HIV-1 envelope-mediated cell-cell fusion – cherry-pick, dose response (AID 652057); format: functional, cell-based
[20] = viability loss in CEM21 cells – cell-based, CellTiter-Glo luminescence, cherry-picked, cytotoxicity control for viral fusion inhibitor project, dose response (AID 652042); format: functional;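 note: potency for signal decrease meaning cytotoxicity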
[21] = blockers of HIV-1 ZM109 envelope-driven cell-cell fusion – HeLa effector, CEM target cells, luciferase, cherry-pick, dose response (AID 652058); format: functional, cell-based;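 note: luciferase signal from HIV-1 Env mediated cell-cell fusion of effector and target cells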
[22] = off-target signal loss in HeLa-CEM21 co-culture – HeLa F-luc CTL cells, cherry-picked, counter-screen for HIV-1 Env fusion inhibitor project, dose response (AID 652040); format: functional, cell-based;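 note: potency for signal decrease marking cytotoxic or nonspecific inhibition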
[23] = HIV-1 AD8 envelope cell-cell fusion blockers – cherry-pick, dose response (AID 652062); format: functional, cell-based;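 note: luciferase signal from cell-cell fusion driven by HIV-1 clade B AD8 Env; potency is for inhibitors of fusion seen as a drop in luminescence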
[24] = blockers of bursicon-stimulated LGR2 cAMP reporter – cell-based, HEK293, CRE-luciferase reporter, cherry pick, set 2, dose response (AID 743343); format: functional;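 note: transfected cells were stimulated with diluted bursicon conditioned medium after compound addition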
[25] = blockade of melanocortin 4 receptor signaling – cell-based, plate reader, cherry pick, counter-screen for LGR2 antagonist project, dose response (AID 743444); format: functional;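 note: transfected HEK 293 cells stimulated with alpha-MSH peptide; potency of inhibitors of the alpha-MSH evoked signal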

Question: With `COc1cccc(-c2cnc3c(NC=O)cc(-c4cccc(C(=O)N(C)C)c4)cn23)c1` as the compound, how does the IC50 (H9c2) read?
Answer: > 79 µM (inactive)

Question: What about the EC50 (Melanocortin receptor 4) of the same compound?
Answer: > 89.2 µM (inactive)

Question: Which results are given for `O=c1c2ccccc2nc(/C=C/c2ccc([N+](=O)[O-])o2)n1-c1ccc(O)cc1`?
Answer: EC50 [1]: 3.91 µM (inconclusive); EC50 (BJ [2]): 4.33 µM (active); EC50 (BJ [3]): 3.48 µM (inconclusive); EC50 [4]: 0.165 µM (active); EC50 (BJ [5]): 3.08 µM (inconclusive); EC50 [6]: 2.97 µM (active); IC50 [7]: > 80 µM (inactive); AC50 [8]: 4.45 µM (active); EC50 (BJ [9]): 7.06 µM (active); AC50 [10]: 3.24 µM (active); AC50 [11]: 5.99 µM (active); AC50 [12]: 4.9 µM (active); AC50 [13]: 4.35 µM (active); AC50 [14]: 4.17 µM (active); AC50 [15]: 4.16 µM (active)

Question: Which EC50 (BJ [2]) does the source give for `NS(=O)(=O)c1ccc(NC(=O)c2cc(-c3cccs3)nc3ccccc23)cc1` here?
Answer: 14.1 µM (active)

Question: What about the EC50 (BJ [3]) of the same compound?
Answer: 83.1 µM (active)

Question: And the EC50 (BJ [5])?
Answer: > 75 µM (inconclusive)

Question: And the EC50 [6]?
Answer: 10.8 µM (active)

Question: And the EC50 (BJ [9])?
Answer: > 133 µM (inactive)

Question: With `COc1cccc(-c2cnc3c(NC(C)=O)cc(-c4cc(F)ccc4OC)cn23)c1` as the compound, how does the EC50 (Melanocortin receptor 4) read?
Answer: > 89.2 µM (inactive)

Question: What does the source list for `COc1ccc(-c2cc3nc(C)n(N)c(=O)c3s2)cc1`?
Answer: EC50 (BJ [2]): 3.64 µM (inconclusive); EC50 (BJ [3]): 2.27 µM (active); EC50 [16]: 0.263 µM (active); EC50 [17]: 0.443 µM (active); EC50 (BJ [5]): 10.6 µM (active); EC50 [6]: 2.15 µM (active); IC50 (Jurkat): 0.47 µM (active); IC50 [18]: > 80 µM (inactive); EC50 (BJ [9]): > 133 µM (inactive); AC50 [10]: 1.13 µM (active); AC50 [11]: 4.71 µM (active); AC50 [19]: 0.95 µM (active); AC50 [20]: 4.71 µM (active); AC50 [21]: 8.99 µM (active); AC50 [22]: 2.33 µM (active); AC50 [23]: 1.51 µM (active); AC50 [13]: 3.1 µM (active); AC50 [14]: 3.72 µM (active); AC50 [24]: 0.26 µM (active); AC50 [25]: 0.289 µM (active); AC50 [15]: 3.01 µM (active)
